Reference: patent US4673676A, “Pyrimidoisoquinoline derivatives useful for treating allergies” (Fujisawa Pharmaceutical Co., Ltd., priority 1983, dated 1987)

Tested on: PCA (Passive Cutaneous Anaphylaxis) reaction
Experiment: Inhibitory effect on PCA (Passive Cutaneous Anaphylaxis) reaction
Assay type: in vivo, male SD (Spraque-Dawley) strain rats
Conditions: rat, 1 mg/kg intravenously, 5 minutes before the challenge with antigen; percent inhibition of dye spot size vs control
Description: A solution of egg albumin (2 mg) in B. pertussisdiphtheria-tetanus mixed vaccine (1 ml) was mixed with Freund incomplete adjuvant (1 ml) to give an emulsion. The emulsion was given subcutaneously in a single dose of 1 ml divided equally (0.25 ml) to the four foot pads of male SD (Spraque-Dawley) strain rats aged 8 weeks, each weighing about 300 g.
8 days after the immunization, blood samples were collected from femoral artery of the rats and allowed to stand under ice-cooling for 5 hours. The separated supernatant was centrifuged at 4° C. (10,000 r.p.m.×1 hour). The antisera thus obtained were stored at -80° C. prior to use.
Male SD-strain rats aged 8 weeks, weighing 250 to 300 g, were used for PCA reaction with the homologous reaginic antiserum as prepared above. Each 0.1 ml of 32 fold diluted antiserum were injected intradermally at separate sites on the back of rats clipped free of hair, and 48 hours later, 1 ml of aqueous solution containing each 5 mg of the egg albumin and Evans blue was injected intravenously to evoke PCA reaction. Test compound was given to the animals intravenously 5 minutes before the challenge with antigen. Control group received vehicle. Each dose group consisted of 4 animals. […] The results were expressed by percent inhibition values calculated from averaged values of the longest and shortest diameters for each spot in comparison with those in control group. […]

Work on “N-(1H-tetrazol-5-yl)-10-(2,3-dimethylpentanoylamino)-7-methyl-4-oxo-4H-pyrimido[2,1-a]isoquinoline-3-carboxamide [Example 11]” yielded an Inhibitory effect of 100%.
